Among the data in PubChem BioAssay AID1963435 (Molecular Pharmacology Branch, DTP, NCI, 2024) are IC50 and viability, T/C values, retold here.

The test has as its system PANC-1 complex spheroid growth, percent test/control. Nature of the test: Anticancer human tumor PANC-1 cell line growth inhibition [Asc].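 On all read-outs here: spheroids exposed to agents for 7 days.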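 On viability, T/C: percent viability relative to DMSO vehicle wells taken as 100%.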 To be noted: for viability, T/C: stronger effect = lower value. In short, it runs like this:
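Concentration series start at each agent's clinical Cmax, or at 10 microM when none is established, and drop in half-log steps; agents are applied alone or together to complex spheroids built with HUVEC and hMSC.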

[1] abbreviates: curve of first compound, second compound 0.00316 µM.
Setting [2] is: curve of first compound, second compound 0.01 µM.
The mark [3] stands for this setting: curve of first compound, second compound 0.0316 µM.
[4] abbreviates: curve of first compound, second compound 0.1 µM.
Where [5] appears, read: curve of first compound, second compound 0.316 µM.
[6] abbreviates: curve of first compound, second compound 1 µM.
[7] abbreviates: second compound 0.00316 µM, first compound 0.00949 µM.
[8] abbreviates: second compound 0.00316 µM, first compound 0.03 µM.
[9] abbreviates: second compound 0.00316 µM, first compound 0.0949 µM.
Where [10] appears, read: second compound 0.00316 µM, first compound 0.3 µM.
Where [11] appears, read: second compound 0.00316 µM, first compound 0.949 µM.
Setting [12] is: second compound 0.00316 µM, first compound 3 µM.
Setting [13] is: second compound 0.01 µM, first compound 0.00949 µM.
The mark [14] stands for this setting: second compound 0.01 µM, first compound 0.03 µM.
Setting [15] is: second compound 0.01 µM, first compound 0.0949 µM.
Setting [16] is: second compound 0.01 µM, first compound 0.3 µM.
Setting [17] is: second compound 0.01 µM, first compound 0.949 µM.
Setting [18] is: second compound 0.01 µM, first compound 3 µM.
The mark [19] stands for this setting: second compound 0.0316 µM, first compound 0.00949 µM.
[20] abbreviates: second compound 0.0316 µM, first compound 0.03 µM.
[21] abbreviates: second compound 0.0316 µM, first compound 0.0949 µM.
Setting [22] is: second compound 0.0316 µM, first compound 0.3 µM.
The mark [23] stands for this setting: second compound 0.0316 µM, first compound 0.949 µM.
Setting [24] is: second compound 0.0316 µM, first compound 3 µM.
Setting [25] is: second compound 0.1 µM, first compound 0.00949 µM.
The mark [26] stands for this setting: second compound 0.1 µM, first compound 0.03 µM.
Setting [27] is: second compound 0.1 µM, first compound 0.0949 µM.
[28] abbreviates: second compound 0.1 µM, first compound 0.3 µM.
[29] abbreviates: second compound 0.1 µM, first compound 0.949 µM.
[30] abbreviates: second compound 0.1 µM, first compound 3 µM.
Where [31] appears, read: second compound 0.316 µM, first compound 0.00949 µM.
[32] abbreviates: second compound 0.316 µM, first compound 0.03 µM.
Setting [33] is: second compound 0.316 µM, first compound 0.0949 µM.
Where [34] appears, read: second compound 0.316 µM, first compound 0.3 µM.
Setting [35] is: second compound 0.316 µM, first compound 0.949 µM.
The mark [36] stands for this setting: second compound 0.316 µM, first compound 3 µM.
[37] abbreviates: second compound 1 µM, first compound 0.00949 µM.
[38] abbreviates: second compound 1 µM, first compound 0.03 µM.
Where [39] appears, read: second compound 1 µM, first compound 0.0949 µM.
[40] abbreviates: second compound 1 µM, first compound 0.3 µM.
[41] abbreviates: second compound 1 µM, first compound 0.949 µM.
Where [42] appears, read: second compound 1 µM, first compound 3 µM.

Several values for one entry are separate records, joined by “and”; a condition that tells them apart may be missing. Equal entries are not always repeated.

Take `CCN1C(C(=O)NC23CCC(C(=O)O)(CC2)CC3)C(c2cccc(Cl)c2F)C2(C(=O)Nc3cc(Cl)ccc32)C12CCCCC2` (stereo not given) + CNC(C)C(=O)NC1CN(S(=O)(=O)c2cccc(S(=O)(=O)N3CCC4CCC(C(=O)NC(c5ccccc5)c5ccccc5)N4C(=O)C(NC(=O)C(C)NC)C3)c2)CCC2CCC(C(=O)NC(c3ccccc3)c3ccccc3)N2C1=O: the IC50 is, setting by setting: under setting [1], above 3 µM; under setting [2], above 3 µM; under setting [3], above 3 µM; under setting [4], above 3 µM; under setting [5], above 3 µM; under setting [6], above 3 µM. Also, the viability, T/C by setting is: under setting [7], 103%; under setting [8], 97.6%; under setting [9], 101%; under setting [10], 103%; under setting [11], 113%; under setting [12], 124%. Besides, the viability, T/C reads like this: under setting [13], 109%; under setting [14], 92.5%; under setting [15], 98.2%; under setting [16], 97.2%; under setting [17], 106%; under setting [18], 126%. Moreover, the viability, T/C under setting [19] is 97.2%; the viability, T/C under setting [20] was 99.6%; the viability, T/C under setting [21] was 101%; the viability, T/C under setting [22] is 95.8%; the viability, T/C under setting [23] is 104%; the viability, T/C under setting [24] was 125%. In addition, the viability, T/C under setting [25] is 97.5%; the viability, T/C under setting [26] was 99.3%; the viability, T/C under setting [27] is 96.7%; the viability, T/C under setting [28] is 109%; the viability, T/C under setting [29] is 105%; the viability, T/C under setting [30] is 121%. For the same compound, the viability, T/C under setting [31] was 99.2%; the viability, T/C under setting [32] was 102%; the viability, T/C under setting [33] is 106%; the viability, T/C under setting [34] was 92.6%; the viability, T/C under setting [35] is 103%; the viability, T/C under setting [36] was 108%. Besides, the viability, T/C reads like this: under setting [37], 96.9%; under setting [38], 103%; under setting [39], 98%; under setting [40], 101%; under setting [41], 116%; under setting [42], 107%.

For `O=C(c1cc(Cc2n[nH]c(=O)c3ccccc23)ccc1F)N1CCN(C(=O)C2CC2)CC1`, the viability, T/C is, setting by setting: (compound 0.0316 µM) 93.1% and 94.8% and 102%; (compound 0.1 µM) 92.7% and 90.1% and 94.9%; (compound 0.316 µM) 99.7% and 109% and 102%; (compound 1 µM) 101% and 112% and 116%; (compound 3.16 µM) 113% and 107% and 103%; (compound 10 µM) 101% and 95.9% and 103%. Further, the half-inhibitory concentration (IC50) (curve of compound) was above 10 µM.

For the compound `Cc1c(S(C)(=O)=O)c(-c2cc(F)cc(N3CCN(c4ccc(NS(=O)(=O)c5ccc(NC(CCN6CCC(C(=O)OCCCP(=O)(O)O)CC6)CSc6ccccc6)c(S(=O)(=O)C(F)(F)F)c5)cc4)CC3)c2)c(-c2ccc(Cl)cc2)n1C(C)C` (stereo not given), the viability, T/C (compound 0.0316 µM) was 106% [middle of 7 runs]; the viability, T/C (compound 0.1 µM) is 108% [middle of 7 runs]; the viability, T/C (compound 3.16 µM) was 109% [middle of 7 runs]. Where the note is “compound alone, run of 11/07/2022”, the IC50 is above 10 µM.

Take `Cc1nc(N2CCC3(CC2)COC(C)C3N)c(CO)nc1Sc1ccnc(N)c1Cl` (stereo not given) + CNC(C)C(=O)NC1CN(S(=O)(=O)c2cccc(S(=O)(=O)N3CCC4CCC(C(=O)NC(c5ccccc5)c5ccccc5)N4C(=O)C(NC(=O)C(C)NC)C3)c2)CCC2CCC(C(=O)NC(c3ccccc3)c3ccccc3)N2C1=O: the IC50 reads like this: under setting [1], above 3 µM; under setting [2], above 3 µM; under setting [3], above 3 µM; under setting [4], above 3 µM; under setting [5], above 3 µM; under setting [6], above 3 µM. In addition, the viability, T/C under setting [7] was 94.8%; the viability, T/C under setting [8] is 85%; the viability, T/C under setting [9] was 96.7%; the viability, T/C under setting [10] was 84.3%; the viability, T/C under setting [11] was 87.7%; the viability, T/C under setting [12] is 87.1%. For the same compound, the viability, T/C under setting [13] is 91.1%; the viability, T/C under setting [14] was 82.6%; the viability, T/C under setting [15] was 79.7%; the viability, T/C under setting [16] is 89.4%; the viability, T/C under setting [17] is 85.8%; the viability, T/C under setting [18] is 95.1%. Besides, the viability, T/C under setting [19] is 93.4%; the viability, T/C under setting [20] is 79.9%; the viability, T/C under setting [21] was 92.8%; the viability, T/C under setting [22] is 86.3%; the viability, T/C under setting [23] is 87.6%; the viability, T/C under setting [24] was 78.9%. Moreover, the viability, T/C runs as follows: under setting [25], 85.3%; under setting [26], 93%; under setting [27], 90%; under setting [28], 83.8%; under setting [29], 90.9%; under setting [30], 89.5%. Besides, the viability, T/C under setting [31] is 89.5%; the viability, T/C under setting [32] is 84.1%; the viability, T/C under setting [33] is 86.7%; the viability, T/C under setting [34] was 84.4%; the viability, T/C under setting [35] was 83.4%; the viability, T/C under setting [36] was 81.2%. Besides, the viability, T/C was 86.5% under setting [37]; 89.8% under setting [38]; 82.6% under setting [39]; 82.7% under setting [40]; 75.6% under setting [41]; 85.9% under setting [42].
